# How the values were obtained:
# [1] = test system: HeLa/Bcl-xL cells; test: MTT cell viability assay; type: cell-based
# Procedure: (§1) HeLa cells were from the American Type Culture Collection (Manassas, Va.). Cells were grown in Dulbecco's modified Eagles medium (DMEM) supplemented with penicillin (100 U/ml), streptomycin (100 μg/ml), 2 mM L-glutamine, 1 mM HEPES buffer, and 10% heat-inactivated fetal bovine serum (FBS). HeLa cells over-expressing Bcl-2 and Bcl-xL were generated as described (Vander Heiden et al.). Briefly, Bcl-2 and Bcl-xL inserts were cloned into an EcoRI site of a pSFFV-neo vector (Fuhlbrigge et al.). Vectors containing inserts, or no insert (neo), were transfected into HeLa cells by electroporation. After selection in G418 (Gibco/BRL Life Technologies), cells were cloned by limiting dilution and transfectants screened for Bcl-xL or Bcl-2 by Western blot analysis. Transfected cell lines were maintained in complete DMEM with G418 (10 μg/ml).
# (§2) For treatments with TRAIL and PDT, cells were incubated with 0-100 ng/ml verteporfin for 60 min at 37° C. in complete DMEM with 2% FBS or incubated with medium alone. Cells were light protected or exposed to blue fluorescent light to give a total dose of 1 J/cm^2. For experiments where cells were treated with 0-1000 ng/ml TRAIL (BIOMOL, Plymouth Meeting, Pa.), this compound was added immediately after light treatment to HeLa cells in complete DMEM with 10% FBS. Cells were maintained at 37° C. with 5% CO2
# (§3) To assess their viability, cells were cultured in 96-well microtiter plates and the MTT (3-(4,5)-dimethylthiazol-2-yl)-2,5-diphenyl tetrazolium bromide) calorimetric assay was performed as described (Mosmann et al.) with modifications. Following treatment, culture medium was decanted and replaced with complete DMEM containing 10% FBS. At 24 h following treatment, culture medium was aspirated and 50 μg of MTT in 100 μl of DMEM containing 2% FBS was added to each well. The reaction was stopped 2 h later by the addition of 150 μl of acidified isopropanol. Color development was measured at 590 nm with a microtiter plate reader. The result obtained for PDT, TRAIL or TRAIL plus PDT treatments was compared to the MTT value obtained for cells not given any treatment and expressed as percentages (%) of the control result.
# [2] = test system: HeLa/neo cells; test: MTT cell viability assay; type: cell-based
# Procedure: as §1, §2, §3
# [3] = test system: HeLa/Bcl-2 cells; test: MTT cell viability assay; type: cell-based
# Procedure: as §1, §2, §3
# [4] = test system: Jurkat T cells; test: DNA fragmentation (sub-diploid DNA) by PI staining and flow cytometry; type: cell-based, human; conditions: for cells exhibiting DNA fragmentation (sub-diploid DNA levels): 690 nm light 5 J/cm^2, analysis 24 hours later
# Procedure: The human Jurkat T cell line containing a neomycin resistance gene was obtained from Dr. Charles Rudin (University of Chicago). Cells were maintained in RPMI 1640 medium containing 10% heat-inactivated fetal calf serum (FCS) with penicillin (100 U/mL), streptomycin (100 μg/mL), 20 mM HEPES, 2 mM L-glutamine and G418 (1 μg/ml) purchased from Gibco BRL (Burlington, Ontario) in a CO2 incubator at 37° C. To elicit apoptosis with PDT, Jurkat cells were incubated with different amounts of liposomally formulated benzoporphyrin derivative monoacid ring A (BPD-MA, verteporfin, QLT PhotoTherapeutics, Inc., Vancouver, Canada) for one hour at 37° C. under light-protected conditions. The culture medium used for experiments was identical to that used for the passage of the cells except that FCS was used at a concentration of 5%. Experiments were conducted either in 6-well culture plates at 5×10^6 cells in a volume of 4 ml per well or in 96-well microtiter plates at 1×10^5 cells per well at 0.2 ml per well. Cells were irradiated with light of a wavelength of 690 nm delivered at 65-73 mW/sec from light emitting diodes (LED) to achieve a total light dose of 5 J/cm^2. Cells were returned to the incubator until required for analysis.
# FasL and TRAIL as used were recombinant preparations. FasL was obtained from Upstate Biotechnology (Lake Placid NY) and corresponded to amino acids 103-281 of the soluble domain of human FasL. TRAIL was obtained from BIOMOL Research Laboratories (Plymouth Meeting, Pa.) and corresponded to residues 114-281 of the soluble domain of human TRAIL. FasL and TRAIL were usually added immediately following the treatment of cells with PDT, although in one series of experiments these factors were added at 1, 2 or 3 hours post-irradiation.
# The proportion of cells containing sub-diploid levels of DNA 24 hours following treatment was determined using a propidium iodide (“PI”) fluorescence analysis procedure as described by Telford et al. (“Rapid Quantitation of Apoptosis in Pure and Heterogeneous Cell Populations Using Flow Cytometry” J. Immunol Methods 172:1-6 (1994)) or by Darzynkieicz et al. (“Features of Apoptotic Cells Measured by Flow Cytometry”, Cytometry, 13:795-808 (1992)).
# Twenty four hours following PDT, 5×10^5 cells were washed twice with ice-cold PBS and then permeablized and fixed in 80% ethanol at 4° C. for one hour. The cells were again washed in ice-cold PBS and stained with PI (50 μg/mL) in PBS with simultaneous deoxyribose nuclease-free ribonuclease A (5 U/mL) treatment. These samples were analyzed by flow cytometry. The percentage of apoptotic cells was calculated using single color analysis for PI fluorescence with a Coulter XL flow cytometer (Coulter Electronics, Inc., Hialeah, Fla.). […] The degree of separation between the apoptotic population and the G0/G1 peak is readily apparent and the percentage of apoptotic cells is determined from the subsequent histogram.
# [5] = TRAIL in combination with verteporfin PDT, 24 hours
# [6] = TRAIL up to 25 ng/ml, 24 hours post-treatment
# [7] = PDT with verteporfin at 25 or 50 ng/ml, blue fluorescent light 1 J/cm^2, 24 hours
substance,measurement,setting,value
"TRAIL: recombinant, residues 114-281 of the soluble domain of human TRAIL (BIOMOL)",cell viability,"[1]; TRAIL at 500 ng/ml, 24 hours",a significant degree of protection against TRAIL
same,cell viability compared with PDT or TRAIL alone and with the expected additive effect,[1]; [5],significantly decreased cell viability
same,cell viability,[1]; [6],little or no loss of cell viability
same,cell viability,"[2]; TRAIL at 500 ng/ml, 24 hours",a complete loss of viability
same,cell viability,"[2]; TRAIL at 50 and 100 ng/ml, 24 hours",a loss in viability
same,cell viability compared with PDT or TRAIL alone and with the expected additive effect,[2]; [5],significantly decreased cell viability
same,cell viability,[2]; [6],little or no loss of cell viability
same,cell viability,"[3]; TRAIL at 500 ng/ml, 24 hours",a significant degree of protection against TRAIL
same,cell viability compared with PDT or TRAIL alone and with the expected additive effect,[3]; [5],significantly decreased cell viability
same,cell viability,[3]; [6],little or no loss of cell viability
same,increase in proportion of cells with sub-diploid DNA versus light-treated control cells,"[4]; TRAIL 20 ng/ml added after PDT with verteporfin 2 ng/ml, 5 J/cm^2, 24 hours",approximately eight-fold
same,increase in the number of cells displaying DNA fragmentation,"[4]; TRAIL 20 ng/ml by itself, 24 hours (FIG. 2)",two-fold
same,proportion of cells with sub-diploid DNA compared with PDT alone,[4]; TRAIL 20 ng/ml or FasL 7.5 ng/ml added after PDT with verteporfin 0.5 and 1 ng/ml,a greater proportion of cells contained a sub-diploid level of DNA
same,nature of the combined effect on DNA fragmentation,[4]; TRAIL 20 ng/ml with PDT (verteporfin 2 ng/ml) versus each alone,greater than additive
same,cells with induced DNA fragmentation,"[4]; TRAIL 1000 ng/ml, within 24 hours",approximately 60%
same,DNA fragmentation induced by the factor without PDT across addition times,"[4]; added at 5 minutes, 1, 2 or 3 hours, FasL 7.5 ng/ml, TRAIL 20 ng/ml, individually or in combination",a comparable level of DNA fragmentation
same,change of the combined effect with PDT on DNA fragmentation,[4]; factor added at 3 hours post-PDT (verteporfin 2 ng/ml),a modest decline
same,capacity to accentuate PDT-mediated apoptosis (DNA fragmentation),"[4]; factor added up to 3 hours after PDT (verteporfin 2 ng/ml), FasL 7.5 ng/ml, TRAIL 20 ng/ml",still demonstrable
"benzoporphyrin derivative monoacid ring A [verteporfin, reference compound]",cell viability,[1]; [7],some loss in viability
same,cell viability,[2]; [7],some loss in viability
same,cell viability,[3]; [7],some loss in viability
same,cells exhibiting DNA fragmentation relative to cells treated with light alone,"[4]; verteporfin 2 ng/ml, light 5 J/cm^2, 24 hours",Five times
same,cells exhibiting DNA fragmentation (sub-diploid DNA levels),[4]; verteporfin 5 ng/ml,a minor proportion of cells
same,cells exhibiting DNA fragmentation (sub-diploid DNA levels),[4]; verteporfin 15 ng/ml,the vast majority of cells

# — patent publication US20030008857A1, “Photodynamic therapy (PDT) in combination with factors that bind cell surface apoptosis-inducing receptors” (priority 1999, published 2003)
